Experimental data as given in patent publication US9453226B2, “Protection of cells from Alu-RNA-induced degeneration and inhibitors for protecting cells” (UNIVERSITY OF KENTUCKY RESEARCH FOUNDATION, priority 2011, dated 2016).
Entries after “also recorded” stand apart in the source; their conditions may differ. Read-outs that look alike come from different tables or passages of the source. *: point of attachment. Cbz = O=C(OCc1ccccc1)*; CH2F = FC*

Key:
RPE [1] = assay: Alu RNA-induced RPE degeneration in wild-type mice, inhibitors given intravitreously; assay type: in vivo; conditions: WT mice, subretinal Alu RNA, inhibitor intravitreous
Description: (§1) Subretinal injection and imaging. Subretinal injections (1 μL) were performed using a Pico-Injector (PLI-100, Harvard Apparatus). Plasmids were transfected in vivo using 10% Neuroporter (Genlantis). Fundus imaging was performed on a TRC-50 IX camera (Topcon) linked to a digital imaging system (Sony). RPE flat mounts were immunolabeled using antibodies against zonula occludens-1 (Invitrogen).
(§2) Retinal photographs of dilated mouse eyes were taken with a TRC-50 IX camera (Topcon) linked to a digital imaging system (Sony).
(§3) Human eyes fixed in 2-4% paraformaldehyde were prepared as eyecups, cryoprotected in 30% sucrose, embedded in optimal cutting temperature compound (Tissue-Tek OCT; Sakura Finetek), and cryosectioned into 10 μm sections. Depigmentation was achieved using 0.25% potassium permanganate and 0.1% oxalic acid. Immunohistochemical staining was performed with the rabbit antibody against NLRP3 (1:100, Sigma Aldrich) or rabbit antibody against Caspase-1 (prediluted, AbCam). Isotype IgG was substituted for the primary antibody to assess the specificity of the staining. Bound antibody was detected with biotin-conjugated secondary antibodies, followed by incubation with ABC reagent and visualized by Vector Blue (Vector Laboratories). Levamisole (Vector Laboratories) was used to block endogenous alkaline phosphatase activity. Slides were washed in PBS, counterstained with neutral red (Fisher Scientific), rinsed with deionized water, air dried, and then mounted in Vectamount (Vector Laboratories). Fluorescent labeling of human tissue was performed with the rabbit antibody against PYCARD (1:50, Clone N-15, Santa Cruz Biotechnology) Immunolabeling was visualized by fluorescently conjugated anti-rabbit secondary antibody (Invitrogen). Tissue autofluorescence was quenched by incubating the sections in 0.3% Sudan black (Fisher Scientific). Sections were mounted in Vectashield with DAPI (Vector Laboratories). Mouse RPE/choroid flat mounts were fixed with 4% paraformaldehyde or 100% methanol, stained with rabbit antibodies against human zonula occludens-1 (1:100, Invitrogen) and visualized with Alexa594 (Invitrogen). All images were obtained using the Leica SP-5 or Zeiss Axio Observer Z1 microscopes.
(§4) Subretinal injections (1 μL) in mice were performed using a Pico-Injector (PLI-100, Harvard Apparatus). In vivo transfection of plasmids coding for two different Alu sequences (pAlu) or empty control vector (pNull) (Bennett et al., 2008; Kaneko et al., 2011; Shaikh et al., 1997) was achieved using 10% Neuroporter (Genlantis). AAV1-BEST1-Cre (Alexander and Hauswirth, 2008) or AAV1-BEST1-GFP were injected at 1.0×10^11 pfu/mL and in vitro transcribed Alu RNA was injected at 0.3 mg/mL.
(§5) siRNAs formulated in siRNA buffer (20 mM KCL, 0.2 mM MgCl2 in HEPES buffer at pH 7.5; Dharmacon) or phosphate buffered saline (PBS; Sigma-Aldrich); the TLR4 antagonist Ultra Pure Rhodobacter sphaeroides LPS (LPS-RS, InvivoGen), a peptide inhibitor of MyD88 homodimerization IMG-2005 (IMGENEX), control inhibitor (IMGENEX), recombinant IL-18 (Medical & Biological Laboratories), neutralizing rat antibodies against mouse IL-1β (IMGENEX), neutralizing rat antibodies against mouse IL-18 (Medical & Biological Laboratories), isotype control IgGs (R&D Systems or eBioscience as appropriate), Caspase-1 inhibitor Z-WEHD-FMK (R&D Systems), Caspase control inhibitor Z-FA-FMK (R&D Systems), DPI (Enzo Life Sciences), Mito-TEMPO (Enzo Life Sciences), MitoQ and dTPP (both adsorbed to cyclodextrin and provided by M.P. Murphy, MRC Mitochondrial Biology Unit), and gp91ds-tat and scrambled gp91 ds-tat (both Anaspec), were dissolved in phosphate buffered saline (PBS; Sigma-Aldrich) or dimethyl sulfoxide (DMSO; Sigma-Aldrich), and injected into the vitreous humor in a total volume of 1 μL with a 33-gauge Exmire microsyringe (Ito Corporation). […] As a control, Luc siRNA-chol (17+2 nt) was used with identical dosages.

NLRP3 and IL18 mRNAs = assay: NLRP3 and IL18 mRNA in human RPE cells (real-time RT-PCR); assay type: cell-based
From the text: Transcript abundance was quantified by real-time RT-PCR using an Applied Biosystems 7900 HT Fast Real-Time PCR system by the 2^−ΔΔCt method.
Total RNA was extracted from tissues or cells using Trizol reagent (Invitrogen) according to manufacturer's recommendations, DNase treated and reverse transcribed (QuantiTect, Qiagen). The RT products (cDNA) were amplified by real-time quantitative PCR (Applied Biosystems 7900 HT Fast Real-Time PCR system) with Power SYBR green Master Mix. Oligonucleotide primers specific for human IL1B (forward 5′-[…]-3′ and reverse 5′-[…]-3′), human IL18 (forward 5′-[…]-3′ and reverse 5′-[…]-3′), human NLRP3 (forward 5′-[…]-3′ and reverse 5′-[…]-3′), human PYCARD (forward 5′-[…]-3′ and reverse 5′-[…]-3′), human VDAC1 (forward 5′-[…]-3′ and reverse 5′-[…]-3′), human VDAC2 (forward 5′-[…]-3′ and reverse 5′-[…]-3′), human VDAC3 (forward 5′-[…]-3′ and reverse 5′-[…]-3′), human 18S rRNA (forward 5′-[…]-3′ and reverse 5′-[…]-3′), mouse Myd88 (forward 5′-[…]-3′ and reverse 5′-[…]-3′), mouse Nlrp3 (forward 5′-[…]-3′ and reverse 5′-[…]-3′), mouse Il18 (forward 5′-[…]-3′ and reverse 5′-[…]-3′), and mouse 18S rRNA (forward 5′-[…]-3′ and reverse 5′-[…]-3′) were used. The QPCR cycling conditions were 50° C. for 2 min, 95° C. for 10 min followed by 40 cycles of a two-step amplification program (95° C. for 15 s and 58° C. for 1 min). At the end of the amplification, melting curve analysis was applied using the dissociation protocol from the Sequence Detection system to exclude contamination with unspecific PCR products. […] For negative controls, no RT products were used as templates in the QPCR and verified by the absence of gel-detected bands. Relative expressions of target genes were determined by the 2^−ΔΔCt method.

RPE [2] = assay: pAlu-induced RPE degeneration in wild-type mice, inhibitors given intravitreously; assay type: in vivo; conditions: WT mice, subretinal pAlu, inhibitor intravitreous, fundus photographs and ZO-1 flat mounts
Description: as §1, §2, §3, §4
as §5, with “dosages. […]” for “dosages.”

human RPE cells [3] = conditions: peptide 100 μM
Description: All cell cultures were maintained at 37° C. and 5% CO2. Primary mouse RPE cells were isolated as previously described (Yang et al., 2009) and grown in Dulbecco Modified Eagle Medium (DMEM) supplemented with 20% FBS and standard antibiotics concentrations. Primary human RPE cells were isolated as previously described (Yang et al., 2008) and maintained in DMEM supplemented with 10% FBS and antibiotics. HeLa cells were maintained in DMEM supplemented with 20% FBS and standard antibiotics concentrations. THP-1 cells were cultured in RPMI 1640 medium supplemented with 10% FBS and antibiotics.
(§6) MTS assays were performed using the CellTiter 96 AQueous One Solution Cell Proliferation Assay (Promega) according to the manufacturer's instructions. For examining the cytoprotective effect of glycine in Alu RNA induced cell death, human RPE cells were transfected with pNull/pAlu. At 6 h post-transfection the cells were incubated with complete media containing glycine (5 mM) or vehicle, and cell viability was assessed after 24 h. Similarly, human RPE cells primed with LPS (5 μg/ml for 6 h) were treated with ATP (25 μM) in the presence of glycine containing media (5 mM). 30 min post ATP cell viability was assessed as described above.
MTS assays were performed using the CellTiter 96 AQueous One Solution Cell Proliferation Assay (Promega) according to the manufacturer's instructions.

human RPE cells [4] = conditions: glycine 5 mM, LPS 5 μg/ml 6 h, ATP 25 μM
Description: as §6

Molecule	Alu RNA-induced RPE degeneration (RPE [1])	pAlu-induced RPE degeneration (RPE [2])	also measured
DRQIKIWFQNRRMKWKK [control peptide]	did not do so		
c1ccc([I+]c2ccccc2)cc1 [DPI, diphenyliodonium]	blocked	protects	pAlu-induced NLRP3 and IL18 mRNA upregulation (NLRP3 and IL18 mRNAs): blocks; also recorded: blocked pAlu-induced NLRP3 and IL18 mRNA upregulation
Cbz-IETD-CH2F		blocked RPE degeneration	pAlu-induced cytotoxicity in human RPE cells (human RPE cells [3]): inhibited human RPE cell death; also recorded: protects; pAlu-induced RPE degeneration (RPE [2]; listed as Caspase-8 inhibitor): protects
COC1=C(OC)C(=O)C(CCCCCCCCCC[P+](c2ccccc2)(c2ccccc2)c2ccccc2)=C(C)C1=O [MitoQ]	prevent; also recorded: blocked		
NCC(=O)O [glycine]			human RPE cell death induced by LPS+ATP (human RPE cells [4]): inhibited; human RPE cell death induced by LPS+ATP (human RPE cells [4]; listed as Glycine): inhibits
CC1(C)CC(NC(=O)C[P+](c2ccccc2)(c2ccccc2)c2ccccc2)CC(C)(C)N1[O] [Mito-TEMPO]	blocked		Alu RNA-induced RPE degeneration (RPE [1]; listed as MitoTempo): prevent
